We go through one compound from patent US11318115B2, “Oral pharmaceutical composition of Tecovirimat and preparation method thereof” (priority 2016, dated 2022).

≈ marks a conversion by molar mass, not a printed value. Where two headings read alike, the source gives them in different places.

Series [1] in a line: physchem. Type of series: physicochemical. To be noted: aqueous with cosolvent or surfactant or cyclodextrin, thermodynamic from solid. The method, then:
Excess amounts of Tecovirimat (bulk drug powder) was added to an aqueous solution comprising meglumine and cyclodextrin at different ratios relative to each other to form a suspension. The suspension was placed in a constant-temperature incubation shaker, and was shaken at a temperature of 25±1° C., 37±1° C. and 60±1° C. for 72 h. After reaching equilibrium, the suspension was filtered through a 0.45 μm hydrophilic filter membrane to obtain a filtrate. After the filtrate was properly diluted with an acetonitrile-water (50:50, v/v) solution, the absorbance was measured at 224 nm, and the solubility of Tecovirimat was calculated. The corresponding solubility curve was plotted by using the solubility of the drug as the ordinate, and using the concentration of the cyclodextrin and/or meglumine as the abscissa.

The conditions of series [2]: cited from earlier work.
Series [3] can be described thus: In vitro dissolution in water (ChP 2015, 0931 Method II, 100 rpm). Type of series: physicochemical. As to conditions: within 60 min, 1000 ml water, FIG. 2. The protocol:
Experimental method: 1000 ml water was used as dissolution medium, and according to the Dissolution Test (Pharmacopoeia of the People's Republic of China (2015 Edition), General Notices, 0931 Method II), the operation was carried out at a rotation rate of 100 rpm, and a solution (5 ml) was taken at 5, 10, 15, 30, 45, and 60 min, respectively, and was filtrated through a 0.45 μm microporous membrane, to obtain a test solution; and Tecovirimat (bulk drug powder, 5 mg) as a reference was accurately weighed, and placed in a 100 ml volumetric flask, and the medium for dissolution was added to a final volume of 100 ml, thereby obtaining a reference solution. By high performance liquid chromatography, the peak area of the test solution and the reference solution were measured at 224 nm. The dissolution amounts at different time points was calculated by an external standard method, and the cumulative dissolution curves were plotted.

For series [4] the following is noted: cited from earlier work. The source holds these as a separate data set.

Turning to `O=C(NN1C(=O)[C@@H]2[C@@H]3C=C[C@@H]([C@H]4C[C@@H]34)[C@@H]2C1=O)c1ccc(C(F)(F)F)cc1` [Tecovirimat, 4-trifluoromethyl-N-(3,3a, 4,4a, 5,5a, 6,6a-octahydro-1,3-dioxo-4,6-ethenocycloprop [f]isoindol-2 (1H)-yl)-benzamide], the solubility (as a rule, the concentration that dissolves in the medium under given conditions) in series [1] (25 °C, cyclodextrin 20% (w/v) to 40% (w/v) alone, 25° C., FIG. 1(A), read-out: solubility of Tecovirimat in water) lay within 5 to 15 mg/mL (≈ 13.3 to 39.9 mM); in series [1] (25 °C, meglumine 2% (w/v) to 10% (w/v) alone, 25° C., FIG. 1(B), read-out: solubility of Tecovirimat in water), 2 to 7 mg/mL (≈ 5.31 to 18.6 mM); in series [1] (25 °C, meglumine 5% (w/v) plus cyclodextrin 20% (w/v) to 40% (w/v), 25° C., FIG. 1(C), read-out: solubility of Tecovirimat in water), 20 to 80 mg/mL; in series [1] (37 °C, cyclodextrin 20% (w/v) to 40% (w/v) alone, 37° C., FIG. 1(A), read-out: solubility of Tecovirimat in water) it was 5 to 18 mg/mL (≈ 13.3 to 47.8 mM); in series [1] (37 °C, meglumine 2% (w/v) to 10% (w/v) alone, 37° C., FIG. 1(B), read-out: solubility of Tecovirimat in water), 2 to 9 mg/mL (≈ 5.31 to 23.9 mM); in series [1] (37 °C, meglumine 5% (w/v) plus cyclodextrin 20% (w/v) to 40% (w/v), 37° C., FIG. 1(C), read-out: solubility of Tecovirimat in water) it was 30 to 100 mg/mL. The solubility was 5 to 20 mg/mL (≈ 13.3 to 53.1 mM) in series [1] (60 °C, cyclodextrin 20% (w/v) to 40% (w/v) alone, 60° C., FIG. 1(A), read-out: solubility of Tecovirimat in water); 2 to 10 mg/mL (≈ 5.31 to 26.6 mM) in series [1] (60 °C, meglumine 2% (w/v) to 10% (w/v) alone, 60° C., FIG. 1(B), read-out: solubility of Tecovirimat in water); 50 to 150 mg/mL in series [1] (60 °C, meglumine 5% (w/v) plus cyclodextrin 20% (w/v) to 40% (w/v), 60° C., FIG. 1(C), read-out: solubility of Tecovirimat in water); at most 152 mg/mL in series [1] (ternary solubilizing composition: Tecovirimat, cyclodextrin, additive (e.g. meglumine), read-out: maximal solubility); 1.5 to 11 mg/mL in series [4] (20%-40% (w/v) hydroxypropyl-β-cyclodextrin (HP-β-CD), 37° C.). Also, in series [2], the water solubility entry was “less than 0.003 mg/ml”. In addition, in series [3], the dissolution is listed as under 5%. Besides, the maximal solubility in series [4] (40% (w/v) HP-β-CD, 70° C.) is 21.23 mg/mL. Moreover, in series [4] (HP-β-CD plus PEG400 or Tween 80), the “effect of cosolvent (PEG400) or nonionic surfactant (Tween 80) on solubility in HP-β-CD” value was “cannot further improve the solubility”.
